Results: ChEMBL document CHEMBL5634072, “The recent advance of Interleukin-1 receptor associated kinase 4 inhibitors for the treatment of inflammation and related diseases” (Eur J Med Chem, 2023)
Blank lines part the entries; values can stand above or below the compound they belong to.

Tests used:
[1] = target: Protein cereblon/Interleukin-1 receptor-associated kinase 4 (Homo sapiens, UniProt Q96SW2+Q9NWZ3); assay: Binding affinity to CRBN/IRAK4 in human PBMC cells assessed as inhibition of LPS-stimulated IL-6 production incubated for 24 hrs by MSD analysis; assay type: cell-based
Protein cereblon/Interleukin-1 receptor-associated kinase 4, sequence (Q96SW2 whole entry, one chain of several): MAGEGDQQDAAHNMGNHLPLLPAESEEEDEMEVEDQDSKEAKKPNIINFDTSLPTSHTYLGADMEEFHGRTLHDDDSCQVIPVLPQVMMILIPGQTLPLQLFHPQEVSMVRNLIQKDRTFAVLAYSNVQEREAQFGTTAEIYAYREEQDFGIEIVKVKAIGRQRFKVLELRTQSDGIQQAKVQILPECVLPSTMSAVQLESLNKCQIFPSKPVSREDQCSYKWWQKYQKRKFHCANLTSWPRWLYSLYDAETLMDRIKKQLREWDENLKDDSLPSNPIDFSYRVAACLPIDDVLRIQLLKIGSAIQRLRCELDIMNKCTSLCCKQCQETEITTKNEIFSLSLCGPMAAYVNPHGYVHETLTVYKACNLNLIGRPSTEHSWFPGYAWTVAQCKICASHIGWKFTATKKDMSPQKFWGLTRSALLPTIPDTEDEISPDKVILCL

[2] = target: T1, Interleukin-1 receptor-associated kinase 4 (Homo sapiens, UniProt Q9NWZ3); assay: Inhibition of IRAK4 (unknown origin) by discoverX kinome scan assay
T1 sequence (Q9NWZ3 whole entry): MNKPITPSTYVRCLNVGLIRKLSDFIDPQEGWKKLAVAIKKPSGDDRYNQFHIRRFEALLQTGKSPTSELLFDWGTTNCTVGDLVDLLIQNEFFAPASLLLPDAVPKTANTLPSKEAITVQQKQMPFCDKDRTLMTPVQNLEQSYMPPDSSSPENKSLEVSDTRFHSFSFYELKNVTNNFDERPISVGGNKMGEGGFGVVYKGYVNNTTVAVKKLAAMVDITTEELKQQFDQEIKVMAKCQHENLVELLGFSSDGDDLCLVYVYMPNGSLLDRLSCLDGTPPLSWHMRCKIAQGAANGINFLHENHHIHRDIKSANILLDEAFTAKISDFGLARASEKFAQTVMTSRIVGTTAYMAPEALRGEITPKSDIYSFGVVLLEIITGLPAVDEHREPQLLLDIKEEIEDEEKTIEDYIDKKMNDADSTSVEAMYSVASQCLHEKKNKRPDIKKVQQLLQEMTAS

[3] = target: T1, Interleukin-1 receptor-associated kinase 4; assay: Inhibition of IRAK4 (unknown origin)
[4] = target: T1, Interleukin-1 receptor-associated kinase 4; assay: Inhibition of IRAK4 (unknown origin) by Ambit kinase assay
Cyclic GMP-AMP synthase = Cyclic GMP-AMP synthase (Homo sapiens, UniProt Q8N884); assay: Inhibition of cyclic GMP-AMP synthase (unknown origin)
Cyclic GMP-AMP synthase, sequence (Q8N884 whole entry): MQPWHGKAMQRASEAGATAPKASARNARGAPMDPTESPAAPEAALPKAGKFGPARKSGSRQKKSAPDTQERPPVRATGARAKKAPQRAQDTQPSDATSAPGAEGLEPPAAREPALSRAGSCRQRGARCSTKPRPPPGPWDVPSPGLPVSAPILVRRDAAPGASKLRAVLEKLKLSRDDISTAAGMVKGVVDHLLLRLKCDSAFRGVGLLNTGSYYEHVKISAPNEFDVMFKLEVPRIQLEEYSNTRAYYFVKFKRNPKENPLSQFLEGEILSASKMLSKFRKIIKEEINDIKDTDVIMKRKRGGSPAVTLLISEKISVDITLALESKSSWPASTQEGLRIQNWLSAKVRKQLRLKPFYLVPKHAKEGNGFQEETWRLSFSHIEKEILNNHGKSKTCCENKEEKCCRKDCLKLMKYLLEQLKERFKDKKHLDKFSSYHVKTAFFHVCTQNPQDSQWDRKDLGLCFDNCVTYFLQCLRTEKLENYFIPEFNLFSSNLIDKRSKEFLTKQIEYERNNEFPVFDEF

[5] = target: Interleukin-1 receptor-associated kinase 1 (Homo sapiens, UniProt P51617); assay: Inhibition of IRAK1 (unknown origin) by Ambit kinase assay
Interleukin-1 receptor-associated kinase 1, sequence (P51617 whole entry): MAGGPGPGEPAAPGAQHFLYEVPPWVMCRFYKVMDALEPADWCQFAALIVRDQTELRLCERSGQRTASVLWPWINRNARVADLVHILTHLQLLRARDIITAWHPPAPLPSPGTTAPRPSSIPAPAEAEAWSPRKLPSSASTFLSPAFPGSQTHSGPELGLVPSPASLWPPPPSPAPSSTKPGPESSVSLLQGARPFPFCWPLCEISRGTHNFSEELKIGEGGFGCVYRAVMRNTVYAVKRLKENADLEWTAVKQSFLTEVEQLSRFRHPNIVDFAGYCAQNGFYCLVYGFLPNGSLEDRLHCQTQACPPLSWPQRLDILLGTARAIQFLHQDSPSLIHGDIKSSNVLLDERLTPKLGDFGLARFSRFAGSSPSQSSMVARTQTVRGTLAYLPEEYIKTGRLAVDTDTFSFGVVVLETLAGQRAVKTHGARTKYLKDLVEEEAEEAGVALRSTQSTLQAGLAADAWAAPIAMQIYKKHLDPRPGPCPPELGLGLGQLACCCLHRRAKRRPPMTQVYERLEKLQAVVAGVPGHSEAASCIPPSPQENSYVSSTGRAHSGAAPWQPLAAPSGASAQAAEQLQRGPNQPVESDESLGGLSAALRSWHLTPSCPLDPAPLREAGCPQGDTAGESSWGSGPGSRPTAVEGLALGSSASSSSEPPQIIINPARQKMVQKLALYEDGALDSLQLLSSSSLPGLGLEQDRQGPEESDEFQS

[6] = target: T2, Protein cereblon/Interleukin-1 receptor-associated kinase 4 (Homo sapiens) (UniProt Q9NWZ3+Q96SW2); assay: PROTAC activity at CRBN/IRAK4 in human PBMC cells assessed as induction of degradation at 0.01 uM measured after 24 hrs by Immuno-blotting analysis relative to control; assay type: cell-based
T2 sequence (Q96SW2 whole entry, looked up, one chain of several): as the sequence (Q96SW2 whole entry, one chain of several) above

[7] = target: T2, Protein cereblon/Interleukin-1 receptor-associated kinase 4 (Homo sapiens); assay: PROTAC activity at CRBN/IRAK4 in human PBMC cells assessed as induction of degradation at 0.1 uM measured after 24 hrs by Immuno-blotting analysis relative to control; assay type: cell-based
[8] = target: T2, Protein cereblon/Interleukin-1 receptor-associated kinase 4 (Homo sapiens); assay: PROTAC activity at CRBN/IRAK4 in human PBMC cells assessed as induction of degradation at 1 uM measured after 24 hrs by Immuno-blotting analysis relative to control; assay type: cell-based

Structure (SMILES): O=C1Nc2nc3ccccc3n2Cc2cc(ccn2)-c2ccc(=O)n(n2)Cc2cccc1c2
IC50 [1]: < 0.1 µM

Structure (SMILES): O=C1Nc2cn(C3CCOCC3)nc2C(=O)NCCOCCCc2cc(ccn2)-c2nc1cs2
IC50 [2]: 0.001 µM

Structure (SMILES): Cc1ccn2c(C(=O)C(=O)c3ccccc3)c(-c3ccccc3)nc2c1
IC50 (Cyclic GMP-AMP synthase): 0.0021 µM

Structure (SMILES): Cn1cc2c(n1)C(=O)NCCn1cc(cn1)-c1ccc(=O)n(n1)Cc1cccc(c1)C(=O)N2
IC50 [1]: < 0.1 µM

Structure (SMILES): CN(C)[C@H]1CC[C@H](Oc2ncnc3sc4c(c23)[C@@H](CCC#N)CC4)CC1
IC50 [5]: < 5 µM

Continued, values first:

IC50 [1]: 0.1 µM
Structure (SMILES): Cn1cc2c(n1)C(=O)NCC1CN(CCO1)C(=O)OCCn1cc(cn1)-c1cccc(n1)C(=O)N2 (centres undefined)

IC50 [3]: 0.165 µM
Structure (SMILES): O=C(Nc1ccc(CN2CCNCC2)c(C(F)(F)F)c1)c1cccc(-c2ccc3nc(NC(=O)C4CC4)sc3n2)c1

EC50 [3]: 0.195 µM
Structure (SMILES): CCO[C@H]1CC[C@@H](n2cc(NC(=O)c3csc(-c4cn[nH]c4)n3)c(-c3nc(F)ccc3F)n2)CC1

IC50 [4]: 0.0016 µM
Structure (SMILES): CC(C)(O)CCn1cc2cc(NC(=O)c3cccc(C(F)(F)F)n3)c(C3COC3)cc2n1

IC50 [3]: < 0.01 µM
Structure (SMILES): CC(C)CCNC(=O)c1ccc2c(c1)nc(Nc1n[nH]c3ccc(-c4ccccc4OC(F)(F)F)cc13)n2C1CCC(O)CC1 (centres undefined)

IC50 [4]: 0.00055 µM
Structure (SMILES): Cc1cc(-c2nc(C(=O)Nc3cc4cn(CCC(C)(C)O)nc4cc3C(C)(C)O)co2)ccn1

Activity [6]: < 20%
Activity [7]: > 20%
Activity [8]: > 50%
Structure (SMILES): O=C1CCC(N2C(=O)c3cccc(NCc4cn(CCCNC(=O)c5ccc(-n6cc(NC(=O)c7coc(-c8ccnc(NCC9CC9)c8)n7)c(C(F)(F)F)n6)cc5)cn4)c3C2=O)C(=O)N1 (centres undefined)
